Experimental data published in PubChem BioAssay AID463136 (University of Pittsburgh Molecular Library Screening Center, 2010).
Records with an inconclusive call do not appear. Activity calls are given as the source filed them. No rule for the calls is given here.

Columns and labels:
[1] = tested on: HCS imaging, dynein-mediated cargo transport inhibition; test: dynein cargo transport inhibitors, potency, dose response, imaging, high-content imaging (AID 463136);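 also: mouse mammary adenocarcinoma 3617.4 cells expressing GFP-tagged rat glucocorticoid receptor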; as to inhibition: reference of the scale not given here
[2] = as above; conditions: HCS imaging, dynein-mediated cargo transport inhibition; inhibition at max concentration; at 50 µM; stronger effect = higher value

Row | Compound | IC50 [1] | inhibition [2]
1 | COc1ccc(-c2cc(C(F)(F)F)nc(S(=O)(=O)CCCC(=O)Nc3cc(C)on3)n2)cc1OC | 42.9 µM | 67.2%
2 | O=C1C=CC2C(c3ccc4c(c3)OCO4)CC1N2Cc1ccccc1 (stereo unspecified) | > 50 µM (inactive) | 13%
3 | Cc1cccc(N2C(=O)NC(=O)/C(=C\C=C\c3ccco3)C2=O)c1 | 33.4 µM | 89.4%
4 | Cc1ccc(C(=O)OCn2ncc(Cl)c(Cl)c2=O)cc1 | 18.9 µM | 76.2%
5 | COC(CNC(=O)c1ccc2c3c(onc13)-c1ccccc1C2=O)OC | 29.3 µM | 99.6%
6 | Cc1ccc(C(C)C)c(OCC(=O)NN=C(CCl)CCl)c1 | > 50 µM (inactive) | 36.3%
7 | Cn1ncc(S(=O)(=O)Cc2ccccc2)c(Cl)c1=O | > 50 µM (inactive) | 10.6%
8 | Cc1ccnc(N/C=C(\C#N)c2nc(-c3cccc(Br)c3)cs2)c1 | 8.77 µM | 102%
9 | CC(=O)O[C@@H]1C[C@H]2C(C)(C)C(=O)C=C[C@]2(C)[C@H]2CC[C@@]3(C)[C@H](c4ccoc4)OC(=O)[C@H]4O[C@]43[C@@]21C | 33.6 µM | 77.9%
10 | CCN(CC)c1ccc(/C=C/C(=O)c2ccc(Br)cc2)cc1 | > 50 µM (inactive) | 7.65%
11 | CCOC(=O)C1=C(Cc2ccc(OC)cc2)C(=O)c2ccccc2C1=O | > 50 µM (inactive) | 21.6%
12 | CCCNC(=O)c1nnsc1S(=O)c1ccc(Cl)cc1 (stereo unspecified) | 7.07 µM | 77%
13 | N#C/C(=C/c1ccc(N2CCCCCC2)o1)c1ccc(F)cc1 | > 50 µM (inactive) | 33.8%
14 | Cc1[nH]c2ccccc2c1/C=N/Nc1ccc([N+](=O)[O-])cc1S(=O)(=O)Nc1ccc(Cl)cc1 | 22.8 µM | 112%
15 | O=C(Cn1ncc(Cl)c(Cl)c1=O)N1CCN(Cc2ccccc2)CC1 | 5.63 µM | 62.9%
16 | CC(=O)Cn1ncc(Br)c(Br)c1=O | 5.4 µM | 78.5%
17 | COc1ccccc1NS(=O)(=O)c1cc([N+](=O)[O-])ccc1N/N=C/c1c(C)[nH]c2ccccc12 | > 50 µM (inactive) | 16.5%
18 | O=C(OCn1ncc(Br)c(Br)c1=O)c1c(F)cccc1F | 18.5 µM | 81.6%
19 | COc1ccccc1N1C(=O)CC(Sc2n[nH]c(-c3cccc(C)c3)n2)C1=O (stereo unspecified) | > 50 µM (inactive) | 5.74%
20 | O=S(=O)(c1ccccc1)c1ncc(C(F)(F)F)cc1Cl | 8.14 µM | 79.3%

Row | Compound | IC50 [1] | inhibition [2]
21 | COC(=O)[C@@]1(Cc2ccccc2)[C@@H]2C(=CC(=O)[C@H]2CC(=O)C(=O)N(C)C)CN1C(=O)c1ccccc1 | 4.67 µM | 86.2%
22 | CCN1CC=C2C(C#N)=C(N)C(C#N)(C#N)C(CCc3ccccc3)C2C1 (stereo unspecified) | 19.5 µM | 98.8%
23 | Cc1ccccc1N1C(=O)CC(Sc2nnc(-c3ccccc3)o2)C1=O (stereo unspecified) | > 50 µM (inactive) | 16.4%
24 | COCCCNC(=O)c1ccc2c3c(onc13)-c1ccccc1C2=O | 16.7 µM | 98.1%
25 | Cc1cccc(N(Cc2ccccc2)C(=O)CCl)c1 | 11.9 µM | 63.4%
26 | CS(=O)(=O)c1cc([N+](=O)[O-])c(Sc2nc3ccccc3[nH]2)c([N+](=O)[O-])c1 | > 50 µM (inactive) | 22.9%
27 | CCOc1ccc2noc3c2c1C(=O)c1ccccc1-3 | 11 µM | 99.2%
28 | O=C1C=CC(O)(c2cc(=O)c3c(O)cc(O)cc3o2)C=C1 | 5.9 µM | 86.7%
29 | O=C(CCl)N(CCCNC(=O)C(F)(F)F)c1ccc([N+](=O)[O-])cc1 | 10.8 µM | 83.1%
30 | CCCCNC1C(CC)C(CCC)C(C#N)(C#N)C1(C#N)C#N (stereo unspecified) | 21.7 µM | 75.2%
31 | CCOC(=O)c1c(NC(=O)/C=C/C(=O)O)sc(C)c1-c1ccc(Cl)cc1 | 9.7 µM | 93.3%
32 | COC(=O)/C=C\C(=O)Nc1cccc([N+](=O)[O-])c1 | > 50 µM (inactive) | 5.31%
33 | O=c1[nH]sc2cc(F)ccc12 | 12 µM | 91.3%
34 | O=C(Nc1ccc(F)cc1)c1nn(-c2ccccc2)c(=O)cc1Cl | 35.7 µM | 76.4%
35 | CCCCNc1c2c3c(cccc3n(C)c1=O)C(=O)c1ccccc1-2 | > 50 µM (inactive) | 12%
36 | Nc1c(C(=O)N/N=C/c2ccc(F)cc2)oc2nc(-c3ccccc3)cc(-c3ccco3)c12 | > 50 µM (inactive) | 40.9%
37 | CC(C)CN1C(=O)/C(=C/c2c(N3CCc4ccccc4C3)nc3ccccn3c2=O)SC1=S | 26 µM | 131%
38 | CN1CCN(S(=O)(=O)c2ccc(Sc3nnnn3-c3ccccc3)c([N+](=O)[O-])c2)CC1 | 17.5 µM | 75.4%
39 | Cc1ccc(SC(=O)c2c(C)noc2-c2cc(C)on2)cc1 | > 50 µM (inactive) | 37.3%
40 | O=[N+]([O-])c1ccc(-c2ccc(/C=N/Nc3nc(N4CCCCC4)nc(N4CCCCC4)n3)o2)cc1 | > 50 µM (inactive) | 22.5%

Row | Compound | IC50 [1] | inhibition [2]
41 | Cn1c(=O)c(NCCO)c2c3c(cccc31)C(=O)c1ccccc1-2 | > 50 µM (inactive) | -13.2%
42 | CC(=O)OCCCNc1cc(Sc2ccc(Cl)cc2)c2nonc2c1[N+](=O)[O-] | 41 µM | 60.4%
43 | COC(=O)c1cc(=O)n(CCc2ccc(OC)cc2)c(=Nc2ccc(F)c(Cl)c2)s1 | > 50 µM (inactive) | 13.5%
44 | O=Cc1s/c(=N\S(=O)(=O)c2ccccc2)n(CCCCl)c1Cl | 33.2 µM | 68.2%
45 | CC(C)(C)c1cnnn1-c1ccc(C(=O)CCl)cc1 | 6.44 µM | 67.1%
46 | CC(=O)OCCCNc1cc(SCc2ccco2)c2nonc2c1[N+](=O)[O-] | 35.1 µM | 67.7%
47 | COCCN(C(=O)CCl)C(C(=O)NC1CCCCC1)c1ccccc1C (stereo unspecified) | 24.8 µM | 79.5%
48 | O=C1C=C(c2ccc(Cl)cc2)C(=O)N1Nc1ccccc1 | 39.3 µM | 75.7%
49 | COc1ccc([N+](=O)[O-])c(S(=O)(=O)c2ccc(Cl)cc2)n1 | > 50 µM (inactive) | 34.4%
50 | Cn1c(=O)c(NCCc2ccccc2)c2c3c(cccc31)C(=O)c1ccccc1-2 | > 50 µM (inactive) | 19%
51 | Cc1ccc(Sc2ccc(NC(=O)CCl)cc2)cc1C | > 50 µM (inactive) | 16.3%
52 | O=c1cc(C(F)(F)F)c2cc3c4c(c2o1)CCCN4CCC3 | 5.51 µM | 99.6%
53 | CCOC(=O)CC1C(=O)NCCN1c1nc2ccc(C)cn2c(=O)c1/C=C1\SC(=S)N(C(C)CC)C1=O (stereo unspecified) | 27.3 µM | 80.8%
54 | N#Cc1cccc(NC(=O)CSc2ccc3c4c(cccc24)C(=O)c2ccccc2-3)c1 | 33.3 µM | 104%
55 | COc1cccc(/C=C/C(=O)c2cccc([N+](=O)[O-])c2)c1OC | > 50 µM (inactive) | 27.1%
56 | COc1ccc(NC(=O)/C(Cl)=C(/Cl)S(=O)Cc2ccc(C)cc2)cn1 (stereo unspecified) | 23.4 µM | 54.7%
57 | O=c1oc2c3c4c(cc2c(C(F)(F)F)c1CCN1CCOCC1)CCCN4CCC3 | 36.4 µM | 99.3%
58 | O=C(OCCN1C(=O)c2cccc3c(N4CCOCC4)ccc(c23)C1=O)c1ccc(Cl)cc1Cl | > 50 µM (inactive) | 2.73%
